Laboratory results as given in ChEMBL document CHEMBL1139978, “Synthesis and radiopharmacological characterization of [11C]AL-438 as a nonsteroidal ligand for imaging brain glucocorticoid receptors” (Bioorg Med Chem Lett, 2007).

What was measured:
[1] = test system: Rattus norvegicus; assay: Biodistribution in Wistar rat rest of brain at 20 MBq, iv after 60 mins; format: ADME, organism-based; conditions: in vivo, 1 h
[2] = test system: Lung; assay: Biodistribution in corticosterone pretreated Wistar rat lung at 20 MBq, iv after 60 mins; format: ADME, organism-based; conditions: in vivo, 1 h
[3] = test system: Heart; assay: Biodistribution in corticosterone pretreated Wistar rat heart at 20 MBq, iv after 60 mins; format: ADME, organism-based; conditions: in vivo, 1 h
[4] = test system: Adrenal; assay: Biodistribution in Wistar rat adrenal at 20 MBq, iv after 60 mins; format: ADME, organism-based, Adrenal tissue; conditions: in vivo, 1 h
[5] = test system: Femur; assay: Biodistribution in Wistar rat femur at 20 MBq, iv after 60 mins; format: ADME, organism-based; conditions: in vivo, 1 h
[6] = test system: Rattus norvegicus; assay: Biodistribution in Wistar rat testis at 20 MBq, iv after 60 mins; format: ADME, organism-based; conditions: in vivo, 1 h
[7] = test system: Liver; assay: Biodistribution in Wistar rat liver at 20 MBq, iv after 60 mins; format: ADME, organism-based; conditions: in vivo, 1 h
[8] = test system: Blood; assay: Biodistribution in Wistar rat blood at 20 MBq, iv after 60 mins; format: ADME, organism-based; conditions: in vivo, 1 h
[9] = test system: Rattus norvegicus; assay: Biodistribution in corticosterone pretreated Wistar rat testis at 20 MBq, iv after 5 mins; format: ADME, organism-based; conditions: in vivo
[10] = test system: Lung; assay: Biodistribution in corticosterone pretreated Wistar rat lung at 20 MBq, iv after 5 mins; format: ADME, organism-based; conditions: in vivo
[11] = test system: Cerebellum; assay: Biodistribution in corticosterone pretreated Wistar rat cerebellum at 20 MBq, iv after 5 mins; format: ADME, organism-based; conditions: in vivo
[12] = test system: Cortex; assay: Biodistribution in Wistar rat cortex at 20 MBq, iv after 60 mins; format: ADME, organism-based; conditions: in vivo, 1 h
[13] = test system: Liver; assay: Biodistribution in corticosterone pretreated Wistar rat liver at 20 MBq, iv after 5 mins; format: ADME, organism-based; conditions: in vivo
[14] = test system: Rattus norvegicus; assay: Biodistribution in corticosterone pretreated Wistar rat testis at 20 MBq, iv after 60 mins; format: ADME, organism-based; conditions: in vivo, 1 h
[15] = test system: Pituitary gland; assay: Biodistribution in Wistar rat pituitary at 20 MBq, iv after 5 mins; format: ADME, organism-based; conditions: in vivo
[16] = test system: Muscle tissue; assay: Biodistribution in corticosterone pretreated Wistar rat muscle at 20 MBq, iv after 5 mins; format: ADME, organism-based; conditions: in vivo
[17] = test system: Rattus norvegicus; assay: Biodistribution in Wistar rat testis at 20 MBq, iv after 5 mins; format: ADME, organism-based; conditions: in vivo
[18] = test system: Lung; assay: Biodistribution in Wistar rat lung at 20 MBq, iv after 60 mins; format: ADME, organism-based; conditions: in vivo, 1 h
[19] = test system: Hippocampus; assay: Biodistribution in corticosterone pretreated Wistar rat hippocampus at 20 MBq, iv after 60 mins; format: ADME, organism-based; conditions: in vivo, 1 h
[20] = test system: Pancreas; assay: Biodistribution in corticosterone pretreated Wistar rat pancreas at 20 MBq, iv after60 mins; format: ADME, organism-based; conditions: in vivo, 1 h
[21] = test system: Muscle tissue; assay: Biodistribution in Wistar rat muscle at 20 MBq, iv after 60 mins; format: ADME, organism-based; conditions: in vivo, 1 h
[22] = test system: Blood; assay: Biodistribution in corticosterone pretreated Wistar rat blood at 20 MBq, iv after 5 mins; format: ADME, organism-based; conditions: in vivo
[23] = test system: Hippocampus; assay: Biodistribution in Wistar rat hippocampus at 20 MBq, iv after 5 mins; format: ADME, organism-based; conditions: in vivo
[24] = test system: Thymus; assay: Biodistribution in Wistar rat thymus at 20 MBq, iv after 5 mins; format: ADME, organism-based; conditions: in vivo
[25] = test system: Hippocampus; assay: Biodistribution in corticosterone pretreated Wistar rat hippocampus at 20 MBq, iv after 5 mins; format: ADME, organism-based; conditions: in vivo
[26] = test system: Spleen; assay: Biodistribution in Wistar rat spleen at 20 MBq, iv after 60 mins; format: ADME, organism-based; conditions: in vivo, 1 h
[27] = test system: Pituitary gland; assay: Biodistribution in corticosterone pretreated Wistar rat pituitary at 20 MBq, iv after 60 mins; format: ADME, organism-based; conditions: in vivo, 1 h
[28] = test system: Kidney; assay: Biodistribution in corticosterone pretreated Wistar rat kidney at 20 MBq, iv after 5 mins; format: ADME, organism-based; conditions: in vivo
[29] = test system: Pituitary gland; assay: Biodistribution in Wistar rat pituitary at 20 MBq, iv after 60 mins; format: ADME, organism-based; conditions: in vivo, 1 h
[30] = test system: Harderian gland; assay: Biodistribution in corticosterone pretreated Wistar rat harderian gland at 20 MBq, iv after 60 mins; format: ADME, organism-based; conditions: in vivo, 1 h
[31] = test system: Cortex; assay: Biodistribution in corticosterone pretreated Wistar rat cortex at 20 MBq, iv after 60 mins; format: ADME, organism-based; conditions: in vivo, 1 h
[32] = test system: Adrenal; assay: Biodistribution in Wistar rat adrenal at 20 MBq, iv after 5 mins; format: ADME, organism-based, Adrenal tissue; conditions: in vivo
[33] = test system: Harderian gland; assay: Biodistribution in Wistar rat harderian gland at 20 MBq, iv after 5 mins; format: ADME, organism-based; conditions: in vivo
[34] = test system: Rattus norvegicus; assay: Biodistribution in corticosterone pretreated Wistar rat fat at 20 MBq, iv after 60 mins; format: ADME, organism-based, Adipose tissue; conditions: in vivo, 1 h
[35] = test system: Femur; assay: Biodistribution in Wistar rat femur at 20 MBq, iv after 5 mins; format: ADME, organism-based; conditions: in vivo
[36] = test system: Cerebellum; assay: Biodistribution in Wistar rat cerebellum at 20 MBq, iv after 60 mins; format: ADME, organism-based; conditions: in vivo, 1 h
[37] = test system: Kidney; assay: Biodistribution in corticosterone pretreated Wistar rat kidney at 20 MBq, iv after 60 mins; format: ADME, organism-based; conditions: in vivo, 1 h
[38] = test system: Spleen; assay: Biodistribution in Wistar rat spleen at 20 MBq, iv after 5 mins; format: ADME, organism-based; conditions: in vivo
[39] = test system: Rattus norvegicus; assay: Biodistribution in Wistar rat brown fat at 20 MBq, iv after 5 mins; format: ADME, organism-based, Brown adipose tissue; conditions: in vivo
[40] = test system: Thymus; assay: Biodistribution in corticosterone pretreated Wistar rat thymus at 20 MBq, iv after 5 mins; format: ADME, organism-based; conditions: in vivo

Drug uptake [1]: 0.56 % ID/g | Drug uptake [2]: 1.03 % ID/g | Drug uptake [3]: 0.67 % ID/g | Drug uptake [4]: 4.4 % ID/g | Drug uptake [5]: 0.88 % ID/g | Drug uptake [6]: 0.52 % ID/g | Drug uptake [7]: 2.54 % ID/g | Drug uptake [8]: 0.6 % ID/g | Drug uptake [9]: 0.43 % ID/g | Drug uptake [10]: 1.44 % ID/g | Drug uptake [11]: 1.46 % ID/g | Drug uptake [12]: 0.6 % ID/g | Drug uptake [13]: 3.04 % ID/g | Drug uptake [14]: 0.5 % ID/g | Drug uptake [15]: 2.49 % ID/g | Drug uptake [16]: 0.9 % ID/g | Drug uptake [17]: 0.47 % ID/g | Drug uptake [18]: 1.11 % ID/g | Drug uptake [19]: 0.68 % ID/g | Drug uptake [20]: 1.43 % ID/g | Drug uptake [21]: 0.59 % ID/g | Drug uptake [22]: 0.52 % ID/g | Drug uptake [23]: 1.3 % ID/g | Drug uptake [24]: 1.57 % ID/g | Drug uptake [25]: 1.35 % ID/g | Drug uptake [26]: 1.06 % ID/g | Drug uptake [27]: 1.76 % ID/g | Drug uptake [28]: 2.06 % ID/g | Drug uptake [29]: 1.77 % ID/g | Drug uptake [30]: 2.87 % ID/g | Drug uptake [31]: 0.74 % ID/g | Drug uptake [32]: 7.63 % ID/g | Drug uptake [33]: 1.68 % ID/g | Drug uptake [34]: 2.43 % ID/g | Drug uptake [35]: 0.9 % ID/g | Drug uptake [36]: 0.53 % ID/g | Drug uptake [37]: 1.13 % ID/g | Drug uptake [38]: 0.97 % ID/g | Drug uptake [39]: 5.22 % ID/g | Drug uptake [40]: 1.46 % ID/g
SMILES: C=CCC1Oc2cccc(O[11CH3])c2-c2ccc3c(c21)C(C)=CC(C)(C)N3 (stereo not given)
